Source: patent US20240209423A1, “METHODS AND COMPOSITIONS FOR REDUCING AUTOFLUORESCENCE” (Advanced Cell Diagnostics, Inc., priority 2021, published 2024)
In brackets after ≈: the same amount, converted by molar mass.

Assays:
[1] = system: tissue autofluorescence in FFPE mouse multi-tissue arrays; assay: Quinone compounds tested for tissue autofluorescence quenching, FFPE mouse multi-tissue arrays; settings: incubated for 30 min; compared with 4×SSC untreated control slide
Procedure: Multiple quinone compounds were tested for tissue autofluorescence quenching effects on FFPE mouse multi-tissue arrays. After bake, deparaffinization, and pretreatment to permeabilize the tissue, 4×SSC or quinone derivative was applied to the tissue and incubated for 30 min. After washing DAPI was applied to stain the nucleus. Slides were then mounted with prolong gold and scanned using the same microscopic settings. A reduction in autofluorescence was determined by comparing the fluorescence on the quinone derivative treated slide with a 4×SSC untreated control slide.

[2] = system: FFPE mouse multi tissue array; assay: Quinone treatment condition optimization, RNAscope HiPlex, FFPE mouse multi tissue array
[3] = system: hTMAc; assay: Antibody compatibility with pBQ treatment (immunofluorescence), hTMAc; settings: CD3, Leica mouse anti-CD3 1:200, Goat anti-rabbit AF488 1:500
Procedure: (§1) CD20 was detected in human head and neck FFPE tissue. After bake, deparaffmization, and pretreatment to permeabilize the tissue, 4×SSC (untreated control) or p-benzoquinone (pBQ) (40 mM in 4×SSC) was applied onto the tissue and incubated for 30 min. After washing, mouse anti-CD20 primary antibody (Leica Ready to Use) was applied for 1 hour at room temperature (RT). Signal was amplified by rabbit anti-mouse post primary antibody (Leica Ready to Use) and goat anti-rabbit […] secondary antibody (Leica Ready to Use) conjugated to HRP. Signal was detected using Opal 520 (Akoya Bio) diluted 1:500 in TSA buffer. The images were taken with the same exposure settings. The brightness of the pBQ treated slide was increased by two-fold to achieve optimal display.
(§2) Additional antibodies were tested for compatibility with p-benzoquinone treatment, using the same general experimental method as described above.

[4] = system: mouse fresh frozen tissue; assay: RNAscope HiPlex assay with p-benzoquinone treatment, mouse fresh frozen tissue; settings: 100 mM in 4×SSC
Procedure: (§3) RNAscope® HiPlex assays were conducted to detect four positive control genes in mouse FFPE kidney tissue. ZZ probes for 12 different targets were hybridized together to a mouse multi-tissue array prepared as formalin-fixed paraffin embedded sections, and the hybridization signals were amplified together by successive rounds of hybridization with the preamplifier and amplifier sequences. Autofluorescence quenching was performed by application of p-benzoquinone (100 mM in 4× Saline-Sodium Citrate (SSC)) onto the slides for 30 minutes at room temperature, followed by detection of four (Ppib, Ubc, Polr2a and Hprt1) of the 12 target genes using fluorescent label probes corresponding to the signal amplification systems assigned to these four target probes and the fluorophores Alexa 488, DyLight 550, DyLight 650 and Alexa 750 respectively (bottom panels). On a separate slide, 4×SSC buffer alone was used as the untreated control. Nuclei were stained with DAPI.
Yet another similar experiment was conducted using mouse fresh frozen tissue, with detection of four of the twelve targets (Polr2a, Ppib, Ubc, and Hprt1).

[5] = system: FFPE mouse brain; assay: Antibody compatibility with pBQ treatment (immunofluorescence), FFPE mouse brain; settings: NeuN, Chicken anti NeuN 1:500, Goat anti-chicken AF555 1:500
Procedure: as §1, §2

[6] = system: FFPE human tumor microarray; assay: Quinone treatment condition optimization, RNAscope HiPlex, FFPE human tumor microarray; parameters: key to the marks not given beside the values; settings: 100 mM, 30 min, Polr2a, PPIB, UBC, Hprt1
Procedure: Major factors tested for p-benzoquinone were chemical concentration, incubation time, and fluorescent dyes.

[7] = system: mouse FFPE liver tissue; assay: Dye compatibility with p-benzoquinone treatment, RNAscope, mouse FFPE liver tissue; settings: p-benzoquinone applied after Amp 3
Description: To evaluate the compatibility of certain dyes, targets were detected in mouse FFPE liver tissue, using the p-benzoquinone treatment step. […] Experimentally, these targets were detected using RNAscope® double Z probes and signals were amplified using an RNAscope® amplification system (Amp 1, 2, 3), with p-benzoquinone applied after Amp 3.

[8] = system: autofluorescence in mouse FFPE kidney tissue; assay: RNAscope HiPlex assay with p-benzoquinone autofluorescence quenching, mouse FFPE kidney tissue; settings: 100 mM in 4× SSC, 30 minutes at room temperature, vs 4×SSC control
Procedure: as §3

[9] = system: autofluorescence in human FFPE lung cancer tissue; assay: RNAscope HiPlex assay with p-benzoquinone treatment, human FFPE lung cancer tissue; settings: 100 mM in 4×SSC, vs 4×SSC alone
Procedure: as §3

[10] = Maximum solubility in 4×SSC; assay type: physicochemical; settings: 4×SSC buffer, aqueous buffer
[11] = system: autofluorescence in FFPE Human Brain Tissues; assay: Quenching of endogenous and lipofuscin autofluorescence, unstained FFPE human brain tissues; settings: 100 mM in 4×SSC
Procedure: The present methods are effective at partially reducing autofluorescence caused by lipofuscin pigment granules that are most commonly found in brain tissues. FFPE Human Brain Tissues were treated with or without pBQ and imaged without staining to reveal tissue endogenous autofluorescence.

[12] = system: human head and neck FFPE tissue; assay: CD20 immunofluorescence after p-benzoquinone treatment, human head and neck FFPE tissue; settings: 40 mM in 4×SSC, 30 min, CD20, Opal 520
Procedure: CD20 was detected in human head and neck FFPE tissue. After bake, deparaffmization, and pretreatment to permeabilize the tissue, 4×SSC (untreated control) or p-benzoquinone (pBQ) (40 mM in 4×SSC) was applied onto the tissue and incubated for 30 min. After washing, mouse anti-CD20 primary antibody (Leica Ready to Use) was applied for 1 hour at room temperature (RT). Signal was amplified by rabbit anti-mouse post primary antibody (Leica Ready to Use) and goat anti-rabbit Alexa 488 secondary antibody (Leica Ready to Use) conjugated to HRP. Signal was detected using Opal 520 (Akoya Bio) diluted 1:500 in TSA buffer. The images were taken with the same exposure settings.

[13] = system: autofluorescence in non-human primate fixed frozen liver tissue; assay: RNAscope HiPlex assay with p-benzoquinone treatment, non-human primate fixed frozen liver tissue; settings: 100 mM in 4×SSC, vs 4×SSC alone

O=C1C=C(Cl)C(=O)C=C1Cl [2,5-Dichloro-1,4-benzoquinone]
Autofluorescence quenching effect [1]: Yes

COC1=CC(=O)C(OC)=CC1=O [2,5-Dimethoxy-(1,4)-benzoquinone]
Autofluorescence quenching effect [1]: No

O=C1C=C(Cl)C(=O)C(Cl)=C1 [2,6-Dichloro-1,4-benzoquinone]
Autofluorescence quenching effect [1]: Yes

COC1=CC(=O)C=C(OC)C1=O [2,6-Dimethoxy-1,4-benzoquinone]
Autofluorescence quenching effect [1]: No

CC1=CC(=O)C=C(C)C1=O [2,6-Dimethylbenzoquinone]
Autofluorescence quenching effect [1]: No

O=C1C=CC(=O)C(Cl)=C1 [2-Chloro-1,4-benzoquinone]
Autofluorescence quenching effect [1]: Yes

COC1=CC(=O)C=CC1=O [2-methoxybenzo-1,4-quinone]
Autofluorescence quenching effect [1]: Yes

Oc1ccc(O)cc1 [Hydroquinone]
Signal/noise ratio ([2]; 20 mM, 4 d, with light exposure): −−+ | Signal/noise ratio ([2]; 20 mM, 6 d, with light exposure): −−+ | Signal/noise ratio ([2]; 200 mM, 2 d, with light exposure): −−+ | Signal/noise ratio ([2]; 200 mM, 4 d, with light exposure): −++ | Signal/noise ratio ([2]; 200 mM, 5 d, with light exposure): −++ | Signal/noise ratio ([2]; 200 mM, 6 d, with light exposure): −++ | Signal/noise ratio ([2]; Buffer 2x SSC (20 mM, 4 d, with light exposure)): −−+ | Signal/noise ratio ([2]; Buffer 4x SSC (20 mM, 4 d, with light exposure)): −−+ | Signal/noise ratio ([2]; Buffer Decal (20 mM, 4 d, with light exposure)): −−+ | Signal/noise ratio ([2]; Buffer RNAase later/inhibitor (20 mM, 4 d, with light exposure)): −−+ | Signal/noise ratio ([2]; Light exposure Yes (200 mM, 2 d)): −−+ | Signal/noise ratio ([2]; Workflow position After Amp1 (20 mM, 2 d, with light exposure)): −−+ | Signal/noise ratio ([2]; Workflow position After Amp2 (20 mM, 2 d, with light exposure)): −−+ | Signal/noise ratio ([2]; Workflow position After Amp3 (20 mM, 2 d, with light exposure)): −++ | Autofluorescence quenching effect [1]: Yes

CC1=CC(=O)C=CC1=O [Methyl-p-benzoquinone]
Autofluorescence quenching effect [1]: No

O.O=C1C(O)=C(O)C(=O)C(O)=C1O [Tetrahydroxy-1,4-quinone hydrate]
Autofluorescence quenching effect [1]: No

O=C1C=CC(=O)C=C1 [p-benzoquinone]
IF Signal compared to control [3]: Weaker | compatibility with RNA in situ hybridization assay [4]: compatible | IF Signal compared to control [5]: Weaker | Signal/noise ratio [6]: +++ | target detection with ATTO dye label probes after p-benzoquinone treatment ([7]; ATTO 550 (UBC), ATTO 647N (POLR2A)): did not lead to successful detection | target detection with Dylight label probes after p-benzoquinone treatment ([7]; Dylight 550 (UBC), Dylight 650 (POLR2A)): successfully detected | effect on tissue autofluorescence [8]: effectively reduced autofluorescence | effect on tissue autofluorescence [9]: reduced autofluorescence | solubility [10]: 100 mM (≈ 10.8 mg/mL) | Signal/noise ratio ([2]; 2 mM, overnight, Polr2a, PPIB, UBC, Hprt1): +++ | Signal/noise ratio ([2]; 20 mM, 30 min): −−+ | Signal/noise ratio ([2]; 100 mM, 30 min): +++ | Signal/noise ratio ([2]; 200 mM, 30 min): +++ | Signal/noise ratio ([2]; Fluorescent dyes: Alexa dyes): +++ | Signal/noise ratio ([2]; Fluorescent dyes: Dylight dyes): +++ | effect on lipofuscin autofluorescence (dot-like and clusters of fluorescence) [11]: partially quenches lipofuscin autofluorescence | effect on lipofuscin autofluorescence (dot-like and clusters of fluorescence) ([11]; listed as p-Benzoquinone): reduced but not completely eliminated | effect on fixation induced haze background ([11]; vs no pBQ control): greatly reduced | Autofluorescence quenching effect [1]: Yes | compatibility of autofluorescence quenching treatment with immunofluorescence [12]: compatible with immunofluorescence assays | effect on tissue autofluorescence [13]: reduced autofluorescence
